In US6365616B1, “Methimazole derivatives and tautomeric cyclic thiones to treat autoimmune diseases” (Sentron Medical, Inc., priority 1998, dated 2002):

Assays:
[1] = test system: silencer complex with Fragment 140 (upstream silencer/enhancer) of the MHC Class I PD1 5′-flanking region; test: Gel shift (EMSA) with upstream 140 class I probe, extracts from treated FRTL-5 cells; format: cell-based, rat; conditions: 5H cells treated 48 hours
Description: FRTL-5 rat thyroid cells (Kohn, L. D., et al., U.S. Pat. No. 4,609,622 (1986); Ambesi-Impiombato E S., U.S. Pat. No. 4,608,341 (1986)) are grown as described below. […] Their doubling time was approximately 36±6 hours; and, after 6 days in medium with no TSH (5H) and 5.0% serum, […] TSH elevated iodide uptake 8-10 fold and thymidine incorporation>10 fold. Cells were diploid, between their 5th and 25th passage in most experiments, and were routinely grown in Coon's modified F12 medium supplemented with 5 % calf serum, 1 mmol/L nonessential amino acids (GIBCO) and a mixture of 6 hormones (6H medium): TSH (1×10^−10 M), insulin (10 μg/ml), hydrocortisone 0.4 ng/ml, human transferrin (5 μg/ml), somatostatin ([…]) and glycyl-L-histidyl-L-lysine acetate (10 ng/ml) (Kohn, L. D. et al., U.S. Pat. No. 4,609,622 (1986); Ambesi-Impiombato, E. S., U.S. Pat. No. 4,608,341 (1986)). They were passaged every 7-10 days and provided fresh media every 2 or 3 days. In individual experiments, cells were grown to near confluency in 6H medium then, in some experiments, were shifted to medium with no TSH (5H), to medium with neither TSH and or insulin (4H), or to medium with no TSH, no insulin and no hydrocortisone (3H) plus either 5% or 0.2% serum for 4-7 days before use.
Cells were grown in 6H medium with 5 % calf serum for 6-7 days to 70-80% confluence, then shifted to 5H medium with 5 % calf serum for 5 days. TSH (1×10^−10 M), gamma-interferon (100 U/ml), MMI (5 mM), and different concentrations of MMI derivatives or tautomeric cyclic thiones (0.0001 to 10 mM) were added as appropriate for […]. Cells were then harvested and extracts were made by a modification of a method of Dignam, J., et al. Methods in Enzymology, 101:582-598 (1983). In brief, cells were harvested by scraping after being washed twice with cold phosphate-buffer saline (PBS). Subsequently they were pelleted, washed in cold PBS and then pelleted again. The pellet was resuspended in Dignam buffer C (20 mM Hepes buffer at pH 7.9, 1.5 mM MgCl2, 0.42 M NaCl, 25% glycerol, 0.5 mM dithiotreitol (DTT), 0.5 mM phenylmethylsulfonylfluoride (PMSF), 1 […] pepstatin). The final NaCl concentration was adjusted on the basis of cell pellet volume to 0.42 M and cells were lysed by repeated cycles of freezing and thawing. Extracts were then centrifuged at 10,000×g at 4° C. for 20 min. The supernatant was recovered, aliquoted and stored at −70° C.
Binding reactions were performed in a volume of 20 μl for 30 min at room temperature. The typical reaction mixture contained 1.5 fmol of ^32P DNA, 3 μg of cell extracts, 1 to 3 μg of poly (dI-dC) in 10 mM Tris-Cl (pH 7.9), 1 mM MgCl2, 1 mM DTT, 1 mM ethylenediamine tetra acetic acid (EDTA), and 5 % glycerol. After incubation, reaction mixtures were subjected to electrophoresis in 4% polyacrylamide gels for 90-120 min at 160 V in 0.5× TBE (Sambrook, J., et al., Molecular Cloning: A Laboratory Manual, 2nd ed. Cold Spring Harbor Press, NY, 2: 11.23-11.44 (1989)), then dried and autoradiographed. Probes were labeled with [α32P] deoxy CTP by Klenow enzyme (In Vitro labeling kit, Amersham) following the manufacturer's instructions, or by [γ^32P] ATP using T4 polynucleotide kinase. Labeled probes were then purified either through G-50 columns (5 prime→3 Prime) or on an 8% polyacrylamide gel.
The effect of the addition of 5 mM MMI to cells for 48 hours prior to extract preparation from cells maintained in SH medium is shown in lane 1 of FIG. 2. The effect of the addition of 1 mM concentration of representative MMI derivatives to cells maintained in 5H medium for 48 hours prior to extract preparation is shown in lanes 3 to 8 in FIG. 2. The structures and names of the representative numbered compounds are in Table 1. The MMI or its derivatives decrease the silencer complex. The decrease can be quantitated by densitometry of autoradiograms or phosphoimaging on a Bas 1500 imager (for example). […]

NOD mice = test: Prevention of glucosuria and diabetes in female NOD mice; format: in vivo, mouse; conditions: 5-phenylmethimazole at a fifth the MMI concentration
Excerpt: Female NOD mice were also obtained from Jackson Labs, along with control mice from which the strain was developed (Makino et al., Exp. Anim. 29:1-13 (1980); Wicker, L. S., et al., Diabetes 35:855-860 (1986)). Animals showing urine Tes-Tape positivity greater than 1 + were considered positive and to have diabetes (Wicker, L. S., et al., ibid (1986)). At 8-16 weeks, […] of NOD mice develop glucosuria and diabetes according to the literature (Wicker, L. S., et al., ibid (1986)).
Table 20 presents results of the ability of Female NOD mice (5 animals were in each group) to develop glucosuria and diabetes when treated with MMI and compound 10 (5-phenylmethimazole) at a fifth the MMI concentration, by comparison to no treatment or treatment with 2-mercaptoimidazole. Mice were from Jackson Labs in this experiment. Animals showing urine Tes-Tape positivity greater than 1+ were considered positive and to have diabetes.
Compound 10 and MMI are therefore effective in preventing diabetes in the NOD mouse example of diabetes.

thyroglobulin RNA = test: Northern analysis of thyroglobulin RNA levels in FRTL-5 cells; format: cell-based, rat; conditions: for % increase in TG RNA expression: 1 mM, 6H medium, 40 hours
MHC class II RNA = test: Northern analysis of MHC class II RNA levels in FRTL-5 cells; format: cell-based, rat; conditions: 100 U/ml γ-interferon, 6H medium, 40 hours

Compound	% inhibition of control silencer complex formation ([1]; 10 μM)	% inhibition of control silencer complex formation ([1]; 100 μM)	% inhibition of control silencer complex formation ([1]; 1 mM)	% inhibition of control silencer complex formation ([1]; 5 mM)	development of glucosuria and diabetes by 12 weeks (NOD mice)	increase of TG RNA levels compared with MMI (thyroglobulin RNA; Table 17, 1 mM)	% inhibition of class II RNA expression (MHC class II RNA; 100 μM)	% inhibition of class II RNA expression (MHC class II RNA; 1 mM)	% increase in TG RNA expression (thyroglobulin RNA)	increase of TG RNA levels (thyroglobulin RNA; Table 17, 1 mM)
Sc1ncc[nH]1 [Compound 3, 2-Mercaptoimidazole]	0%	0%	0%	0%	developed diabetes	–	–	–	–	–
O=[N+]([O-])c1ccc2[nH]c(S)nc2c1 [Compound 5, 2-Mercapto-5-nitrobenzimidazole]	0%	0%	0%	Insol	–	–	–	–	–	–
Cn1c(-c2ccccc2)cnc1S [Compound 10, 5-Phenylmethimazole]	25%	60 ± 10%	85 ± 15%	–	prevented glucosuria	no comparable increase	75 ± 15%	87 ± 4%	–	–
Sc1nc2ccccc2[nH]1 [Compound 4, 2-Mercaptobenzimidazole]	0%	5%	75 ± 10%	Insol	–	–	–	–	–	–
Cc1ccc2[nH]c(S)nc2c1 [Compound 6, 2-Mercapto-5-methylbenzimidazole]	0%	0%	20 ± 18%	Insol	–	–	–	–	–	–
Cc1cnc(S)n1C [Compound 9, 5-Methylmethimazole]	0%	0%	15 ± 15%	30 ± 20%	–	–	–	–	–	–
Cc1ncc([N+](=O)[O-])n1CCO [Compound 2, 2-Methyl-5-nitro-1-imidazole ethanol]	0%	0%	45 ± 19%	86 ± 15%	–	–	11 ± 10%	45 ± 13%	–	–
Cn1ccn(C)c1=S [Compound 8, N-Methylmethimazole]	0%	18 ± 18%	70 ± 14%	–	–	no comparable increase	32 ± 5%	59 ± 12%	129 ± 7%	–
CSc1nccn1C [Compound 7, S-Methylmethimazole]	0%	10 ± 13%	50 ± 9%	–	–	no comparable increase	22 ± 17%	62 ± 14%	122 ± 14%	–
Cn1ccnc1S [Compound 1, 1-Methylimidazole-2-thiol]	0%	0%	20 ± 15%	75 ± 12%	prevented glucosuria	–	None	29 ± 9%	207 ± 10%	~2 fold
